Test results: patent publication US7312244B2, “Polyamine analog-amino acid conjugates useful as anticancer agents” (Cellgate, Inc., priority 1999, dated 2007)

What was measured:
Format in all cases: cell-based
[1] = tested on: DuPro human prostate cancer cell line; experiment: MTT assay, percent cell survival, DuPro; set-up: unit not given beside the values; conditions: DuPro cells, six days after drug treatment
Method: (§1) Polyamine- and polyamine analog-amino acid conjugates of the invention were tested for their ability to inhibit growth of various cancer cell lines. The procedures used for testing activity are similar to those used in International Patent Application WO 00/66587 and U.S. Pat. No. 5,889,061 and are described below.
(§2) Human breast cancer cell line MCF7 was grown in Richter's Improved Modified Eagle's Medium supplemented with 10% fetal bovine serum (FBS) and 2.2 g/L sodium bicarbonate. Human brain tumor cell line U251 MG-NCI was grown in Dulbecco's Modified Eagle's Medium supplemented with 10% FBS. Human lung cancer cell line A549 was grown in Ham's F-12K medium (Cellgro, Mediatech, Inc., Va.), supplemented with 10% FBS and 2 mM L-glutamine. Human colon cancer cell line HT129 was cultured in McCoy's 5A medium (Gibco, BRL, Gaithersburg, Md.) supplemented with 10% FBS. Human prostate cancer cell lines PC-3, LNCAP and DuPro were grown in RPMI 1640 Medium (Cellgro, Mediatech, Inc., Va.) supplemented with 10% FBS. […]
(§3) A conventional MTT assay was used to evaluate percent cell survival. […] A microplate reader (“EMAX”-brand, Molecular Devices, Sunnyvale, Calif.) set at 570 nm was used to determine the optical density of the cultures. Results are expressed as a ratio of the optical density in drug-treated wells to the optical density in wells treated with vehicle only.

[2] = tested on: LnCap human prostate cancer cell line; experiment: MTT assay, percent cell survival, LnCap; conditions: LnCap cells, six days after drug treatment, in µM (unit assumed)
Method: as §1, §2, §3

[3] = tested on: PC-3 human prostate cancer cell line; experiment: MTT assay, percent cell survival, PC-3; conditions: PC-3 cells, six days after drug treatment, in µM (unit assumed)
Method: as §1, §2, §3

[4] = tested on: DU145 human prostate cancer cell line; experiment: MTT assay, percent cell survival, DU145; set-up: unit not given beside the values; conditions: DU145 cells, six days after drug treatment
Method: as §1, §2, §3

SMILES	ID50 DuPro [1]	ID50 LnCap [2]	ID50 PC-3 [3]	ID50 DU145 [4]
CCNCCCCNCCCCNCCCCNCCCCN(CC)C(=O)C(N)CCC(N)=O (stereo not shown) [SL-11165]	>31.65	>31.25	4.1	–
CCNCCCCNCCCCNCCCCNCCCCNC(=O)CCN [SL-11143]	13.75	6.4	>31.25	0.06
